Assay results taken from patent publication US10071095B2, “1,2,4-triazolo [4,3-A] pyridine derivatives and their use for the treatment of neurological and psychiatric disorders” (JANSSEN PHARMACEUTICALS, INC., priority 2009, dated 2018).

Legend:
human mGluR2 receptor = target: T1, human mGluR2 receptor (Homo sapiens, UniProt Q14416); test: [35S]GTPγS binding assay, positive allosteric modulation (GTPγS-PAM) in presence of EC20 glutamate; type: biochemical; conditions: in presence of glutamate at EC20, average pEC50 if more experiments, ‡ means tested once; for EC50: read-out: GTPγS - hR2 PAM pEC50 (converted)
T1 construct: expressed in transfected cells; host or cells: CHO cells
T1 sequence (Q14416 19-872): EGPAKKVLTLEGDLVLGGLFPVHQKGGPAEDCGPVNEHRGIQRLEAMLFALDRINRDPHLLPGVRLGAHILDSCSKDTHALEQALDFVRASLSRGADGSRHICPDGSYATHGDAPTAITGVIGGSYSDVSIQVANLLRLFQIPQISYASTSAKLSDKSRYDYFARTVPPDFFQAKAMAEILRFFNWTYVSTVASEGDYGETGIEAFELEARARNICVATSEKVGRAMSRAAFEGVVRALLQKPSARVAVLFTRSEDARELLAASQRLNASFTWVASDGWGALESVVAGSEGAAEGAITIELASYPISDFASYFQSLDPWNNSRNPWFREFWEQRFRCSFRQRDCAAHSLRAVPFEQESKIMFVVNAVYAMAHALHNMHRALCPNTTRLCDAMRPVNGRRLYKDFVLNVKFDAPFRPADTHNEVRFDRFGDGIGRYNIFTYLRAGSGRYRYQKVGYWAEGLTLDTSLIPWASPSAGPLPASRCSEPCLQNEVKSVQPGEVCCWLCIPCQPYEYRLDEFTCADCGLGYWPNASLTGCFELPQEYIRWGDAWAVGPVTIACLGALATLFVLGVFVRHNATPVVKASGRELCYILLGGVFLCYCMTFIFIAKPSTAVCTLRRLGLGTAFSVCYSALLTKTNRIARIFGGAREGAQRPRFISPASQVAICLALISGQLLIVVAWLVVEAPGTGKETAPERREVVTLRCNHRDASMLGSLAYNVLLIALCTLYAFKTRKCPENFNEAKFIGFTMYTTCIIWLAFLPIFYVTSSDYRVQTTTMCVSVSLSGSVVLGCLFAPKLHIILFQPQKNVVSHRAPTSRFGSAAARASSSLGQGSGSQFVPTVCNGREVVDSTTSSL
Summary of the method: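 Membranes from butyrate-stimulated CHO cells expressing human mGluR2 (7 μg protein) preincubated 30 min at 30°C with compound plus ~EC20 glutamate in HEPES pH 7.4, 100 mM NaCl, 3 mM MgCl2, 10 μM GDP, 10 μg/ml saponin. [35S]GTPγS (0.1 nM) incorporation over 30 min at 30°C measured by filtration and scintillation counting.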

[1] = tested on: PCP-induced hyperlocomotion in male NMRI mice; test: Phencyclidine (PCP)-induced hyperlocomotion in mice (video tracking); type: in vivo; conditions: for Mice ED50 (mg/kg) PCP-Inh., estimated ED50 (footnote a) / Mice ED50 (mg/kg) PCP-Inh.: inhibition of PCP-induced hyperlocomotion; for Mice ED50 (mg/kg) PCP-Inh., estimated ED50 (footnote a): estimated ED50 values (n = 3 per dose; 4-fold separation between doses); for Mice ED50 (mg/kg) PCP-Inh.: dose at which 50% of the tested animals show the effect
Experimental: Motor Activity (Video Tracking)
Apparatus and General Procedure
On the day of experiments, the mice were brought into the procedural room. They were housed individually and allowed to acclimate for at least a half hour prior to testing. Although the studies were conducted during the light cycle (from 8:00 to 16:00 h), the procedure room was only sparsely lit (3 to 30 LUX) to provide better contrast for the video tracking. Local lighting was used for the injection procedures. During each trial, an individual mouse was placed in an open field arena (grey PVC cylinder with a height of 40 cm and a diameter of 22.5 cm). Each arena was placed on an infrared LED (8×8 LEDs)-lit box (white PVC squared box; 40×40 cm^2; height 12.5 cm). Each mouse was placed in the center of the arena and allowed to explore freely for 30 min. After each trial, the arena was cleaned with a wet and subsequently with a dry cleaning cloth. An infrared sensitive tube camera and a white light source (in arena: 4-7 LUX) were mounted to the ceiling above the observation chamber to record and input activity to a computer. Animal behavior was recorded and analyzed using the Noldus Ethovision XT Video Tracking System (Version 3.1; Noldus, Wageningen, The Netherlands). The total distance traveled (cm) was calculated. Data were then exported to data management systems for further analysis and reporting.
Phencyclidine (PCP)-Induced Hyperlocomotion in Mice
Test compound or solvent was administered at a pre-defined time before measurement (standard: 30 min) to male NMRI mice that were challenged with phencyclidine (PCP; 5 mg/kg, s.c.) 30 min before measurement. Activity was measured for a period of 30 min.

melting point	GTPγS - hR2 PAM pEC50 (human mGluR2 receptor)	SMILES	also measured
181.8 °C		Clc1c(CN2CCC(c3ccccc3)CC2)ccn2c(CC3CC3)nnc12 [compound 1, 8-Chloro-3-cyclopropylmethyl-7-[(4-phenyl-1-piperidinyl)methyl]-1,2,4-triazolo[4,3-a]pyridine]	EC50 (human mGluR2 receptor): 209 nM
194.5 °C		Clc1c(N2CCC3(CC2)OCc2ccccc23)ccn2c(CC3CC3)nnc12 [compound 6, 1′-[8-Chloro-3-(cyclopropylmethyl)-1,2,4-triazolo[4,3-a]pyridin-7-yl]-spiro[isobenzofuran-1(3H),4′piperidine]]	EC50 (human mGluR2 receptor): 129 nM
> 300 °C		FC(F)(F)Cc1nnc2c(Cl)c(N3CCC4(CC3)OCc3ccccc34)ccn12 [compound 8]	EC50 (human mGluR2 receptor): 97.7 nM
300 °C		N#Cc1c(N2CCC(c3ccccc3)CC2)ccn2c(CN3CCOCC3)nnc12 [compound 11]	EC50 (human mGluR2 receptor): 7590 nM
269.1 °C		FC(F)(F)Cc1nnc2c(Cl)c(N3CCC4(CC3)COc3ccccc34)ccn12 [compound 16, 1′-[8-Chloro-3-(2,2,2-trifluoroethyl)[1,2,4]triazolo[4,3-a]pyridin-7-yl]-spiro[1-benzofuran-3,4′-piperidine]]	EC50 (human mGluR2 receptor): 178 nM
153.7 °C		CC(C)OCc1nnc2c(C(F)(F)F)c(N3CCC(F)(c4ccccc4)CC3)ccn12 [compound 18, 7-(4-Fluoro-4-phenylpiperidin-1-yl)-3-[(1-methylethoxy)methyl]-8-(trifluoromethyl)[1,2,4]triazolo[4,3-a]pyridine]	EC50 (human mGluR2 receptor): 69.2 nM
194.1 °C	6.99	Clc1c(N2CCC(c3ccccc3)CC2)ccn2c(CC3CC3)nnc12 [compound 26, 8-Chloro-3-cyclopropylmethyl-7-[4-phenyl-piperidin-1-yl]-[1,2,4]triazolo[4,3-a]pyridine]	
	6.95	FC(F)(F)Cc1nnc2c(Cl)c(CN3CCC(c4ccccc4)CC3)ccn12 [compound 30]	inhibition of PCP-induced hyperlocomotion in mice (in words) [1]: inhibited; Mice ED50 (mg/kg) PCP-Inh., estimated ED50 (footnote a) [1]: 5 ^a) mg/kg
	6.02	N#Cc1c(N2CCN(C3CCC(C(F)(F)F)CC3)CC2)ccn2c(CC3CC3)nnc12 (stereo not shown) [compound 44]	Mice ED50 (mg/kg) PCP-Inh. [1]: >40 mg/kg
	6.94	CCc1nnc2c(C(F)(F)F)c(N3CCC(c4ccccc4)CC3)ccn12 [compound 66]	inhibition of PCP-induced hyperlocomotion in mice (in words) [1]: inhibited; Mice ED50 (mg/kg) PCP-Inh. [1]: 17.4 ^ mg/kg
	6.83	FC(F)(F)c1c(N2CCC(c3ccccn3)CC2)ccn2c(CC3CC3)nnc12 [compound 78]	Mice ED50 (mg/kg) PCP-Inh. [1]: ≥10^ mg/kg
260.2 °C		CC1(C)CN(c2ccn3c(CC(F)(F)F)nnc3c2Cl)CCN1c1ccccc1 [compound 100, 8-Chloro-3-(2,2,2-trifluoroethyl)-7-(3,3-dimethyl-4-phenyl-piperazin-1-yl)-[1,2,4]triazolo[4,3-a]pyridine]	EC50 (human mGluR2 receptor): 309 nM
218.4 °C		FC(F)(F)c1c(N2CCN(c3ccccc3)C3(CC3)C2)ccn2c(CC3CC3)nnc12 [compound 121, 1′-[3-cyclopropylmethyl-8-(trifluoromethyl)[1,2,4]triazolo[4,3-a]pyridin-7-yl]-4-phenyl-4,7-diaza-spiro[2.5]octane]	EC50 (human mGluR2 receptor): 234 nM
300 °C		FC(F)(F)c1c(N2CCC(c3ccccc3)CC2)ccn2c(CCC3CC3)nnc12 [compound 123, 8-Trifluoromethyl-3-(2′-cyclopropyl)ethyl-7-(4-phenylpiperidin-1-yl)-[1,2,4]triazolo[4,3-a]pyridine]	EC50 (human mGluR2 receptor): 40.7 nM
> 300 °C		Cc1c(N2CCC(c3ccccc3)CC2)ccn2c(CC3CC3)nnc12 [compound 145, 3-Cyclopropylmethyl-8-methyl-7-(4-phenyl-piperidin-1-yl)-[1,2,4]triazolo[4,3-a]pyridine]	EC50 (human mGluR2 receptor): 417 nM
> 300 °C		CC1(c2ccccn2)CCN(c2ccn3c(CC4CC4)nnc3c2C(F)(F)F)CC1 [compound 148, 8-Trifluoromethyl-3-(cyclopropylmethyl)-7-(4-methyl-4-(2-pyridinyl)-piperidin-1-yl)-1,2,4-triazolo[4,3-a]pyridine]	EC50 (human mGluR2 receptor): 363 nM
> 300 °C		FC(F)(F)c1c(N2CCC(c3ccccc3)CC2)ccn2c(Cc3ccccn3)nnc12 [compound 153, 8-Trifluoromethyl-3-(2-pyridinylmethyl)-7-(4-phenylpiperidin-1-yl)-1,2,4-triazolo[4,3-a]pyridine]	EC50 (human mGluR2 receptor): 195 nM
	6.03‡	FC(F)(F)C1CCC(N2CCN(c3ccn4c(CC5CC5)nnc4c3Cl)CC2)CC1 (stereo not shown) [compound 223]	
	6.31‡	Fc1ccc(CN2CCN(c3ccn4c(CC5CC5)nnc4c3C(F)(F)F)CC2)c(F)c1 [compound 227]	
	5.61‡	FC(F)(F)c1c(N2CCC(NCc3ccccc3)CC2)ccn2c(CC3CC3)nnc12 [compound 230]	
	7.64	Fc1ccc(CN2CCCC3(C2)CN(c2ccn4c(CC5CC5)nnc4c2C(F)(F)F)C3)c(F)c1 [compound 232]	
	7.23	CC1(C)CN(c2ccn3c(CC4CC4)nnc3c2C(F)(F)F)CCN1c1cc(F)cc(F)c1 [compound 233]	

melting point	GTPγS - hR2 PAM pEC50 (human mGluR2 receptor)	SMILES	also measured
	6.08‡	FC1(F)CCN(C2CCN(c3ccn4c(CC5CC5)nnc4c3C(F)(F)F)CC2)CC1 [compound 238]	
	5.86	FC1(F)CCN(C2CCN(c3ccn4c(CC5CC5)nnc4c3Cl)CC2)CC1 [compound 242]	
		FC(F)(F)c1c(CN2CCC(F)(c3ccccc3)CC2)ccn2c(CC3CC3)nnc12 [compound 250, 3-(Cyclopropylmethyl)-7-[(4-fluoro-4-phenyl-1-piperidinyl)methyl]-8-(trifluoromethyl)-1,2,4-triazolo[4,3-a]pyridine]	ED50 ([1]; Mus musculus, read-out: Mice ED50 (mg/kg) PCP-Inh.): > 10 mg/kg
	6.67‡	Clc1c(N2CCC(n3ccc4ccccc43)CC2)ccn2c(CC3CC3)nnc12 [compound 259]	
	7.47	FC(F)(F)c1c(N2CCC3(C=Cc4ccccc43)CC2)ccn2c(CC3CC3)nnc12 [compound 260]	
	7.88‡	FC(F)(F)c1c(N2C[C@@H]3[C@H](C2)[C@H]3c2ccccc2)ccn2c(CC3CC3)nnc12 [compound 266]	
	7.83‡	Fc1ccccc1C1CCN(c2ccn3c(CC4CC4)nnc3c2C(F)(F)F)CC1 [compound 274]	
	7.72	COc1cc(F)ccc1C1CCN(c2ccn3c(CC4CC4)nnc3c2C(F)(F)F)CC1 [compound 277]	
	7.24‡	Fc1ccc(COC2CCN(c3ccn4c(CC5CC5)nnc4c3C(F)(F)F)CC2)c(F)c1 [compound 279]	
	5.95‡	Fc1cc(CN2CCN(c3ccn4c(CC5CC5)nnc4c3Cl)CC2)cc(C(F)(F)F)c1 [compound 280]	
	7.87‡	FC(F)(F)c1c(N2CCC(c3ccccc3Cl)CC2)ccn2c(CC3CC3)nnc12 [compound 287]	
	7.24	Fc1cccc(F)c1C1CCN(c2ccn3c(CC4CC4)nnc3c2Cl)CC1 [compound 300]	inhibition of PCP-induced hyperlocomotion in mice (in words) [1]: inhibited; Mice ED50 (mg/kg) PCP-Inh., estimated ED50 (footnote a) [1]: 12.6 ^a) mg/kg
	7.45‡	COc1cccc(F)c1N1CCN(c2ccn3c(CC4CC4)nnc3c2C(F)(F)F)CC1 [compound 301]	
	6.55	COc1cccc(F)c1N1CCN(c2ccn3c(CC4CC4)nnc3c2Cl)CC1 [compound 302]	
	6.12	FC(F)(F)c1cc(CN2CCN(c3ccn4c(CC5CC5)nnc4c3Cl)CC2)cc(C(F)(F)F)c1 [compound 304]	
	7.24	Fc1ccc(OC2CCN(c3ccn4c(CC5CC5)nnc4c3C(F)(F)F)CC2)c(F)c1 [compound 315]	
	7.71‡	CCCCc1nnc2c(C(F)(F)F)c(N3CCC(c4ccc(F)cc4F)CC3)ccn12 [compound 327]	
	7.15‡	CCOCc1nnc2c(C(F)(F)F)c(N3CCC(c4ccc(F)cc4F)CC3)ccn12.Cl [compound 339]	
	7.46‡	Fc1cc(F)cc(N2CCN(c3ccn4c(CC5CC5)nnc4c3C(F)(F)F)CC2)c1 [compound 351]	
	7‡	Fc1cnc(N2CCN(c3ccn4c(CC5CC5)nnc4c3C(F)(F)F)CC2)c(F)c1 [compound 359]	
	6.44‡	Fc1ccc(N2CCN(c3ccn4c(CC5CC5)nnc4c3C(F)(F)F)CC2)nc1 [compound 360]	
